In PubChem BioAssay AID2823 (Broad Institute, 2010):
pIC50: −log10 of the molar value. Activity calls are given as the source filed them. The rule behind the calls is not given here.

Target: RanGTP-importin-beta complex (human Ran / KPNB1)
Assay: disruptors of RanGTP/KPNB1 binding – biochemical, FRET, CFP/YFP, cell-free homogeneous, confirmation (AID 2823)
Conditions: CFP-Ran/YFP-importin-beta FRET ratio

SMILES	pIC50	IC50
CCOC(=O)C1=C(C)NC2=C(C(=O)C(C(=O)OCC)C(c3cccc(OC)c3)C2)C1c1ccccn1 (centres undefined)	4.65	
COc1ccc(-c2nc(/C=C3\C(C)=Nc4ccccc43)c(O)o2)cc1		> 50 µM (inactive)
N=c1oc2ccccc2cc1-c1nc(-c2ccc(Cl)cc2)cs1	4.47	
Nc1nc(N2CCOCC2)nc(N(c2ccccc2)c2ccccc2)n1		> 50 µM (inactive)
COc1cccc(C(=O)c2cc3ccc(O)cc3oc2=O)c1	4.57	
Cc1ccc2cc(CN(CC3CCCO3)C(=S)Nc3ccccc3)c(=O)[nH]c2c1C (centres undefined)		> 50 µM (inactive)
CC(C)NC(=O)NC(=O)COC(=O)c1ccccc1O		> 50 µM (inactive)
CCc1ccccc1NC(=O)/C(C#N)=C\c1ccc(Sc2ccccc2)o1		> 50 µM (inactive)
CCOC(=O)/C(C#N)=C/c1c(N2CCN(c3ccc(OC)cc3)CC2)nc2c(C)cccn2c1=O		> 50 µM (inactive)
C=CCN1CCc2cccc3c2[C@H]1Cc1ccc(O)c(O)c1-3		> 50 µM (inactive)
Cc1ccc2[nH]c(=O)c(C(c3nnnn3Cc3ccccc3)N3CCc4ccccc43)cc2c1 (centres undefined)		> 50 µM (inactive)
Cc1cc(C)c(C#N)c(Nc2ccccc2C)n1		> 50 µM (inactive)
CCc1ccc(-c2nc(CSCC(=O)N3CCN(c4ccccn4)CC3)c(C)o2)cc1		> 50 µM (inactive)
COc1cc(CN2CCN(Cc3c[nH]c4ccccc34)CC2CCO)cc(OC)c1 (centres undefined)		> 50 µM (inactive)
CC(C)c1cc(N2CCN(C(=O)c3ccco3)CC2)n2c(nc3ccccc32)c1C#N	4.61	
COc1ccc(-c2csc3ncnc(N4CCN(c5ccc(OC)cc5)CC4)c23)cc1		> 50 µM (inactive)
CC1=NN(C(=O)c2ccccc2)C(O)(c2ccc(Br)cc2)C1 (centres undefined)		> 50 µM (inactive)
NNc1nc2sc3c(c2c(=O)n1C1CCCCC1)CCN(Cc1ccccc1)C3	5.57	
CCc1ccccc1N(CC(=O)NCc1ccco1)C(=O)CCC(=O)Nc1nccs1		> 50 µM (inactive)
Cc1cc(NCCN(C)C)n2nc(-c3cccs3)cc2n1	4.54	
COCCCn1c(=N)c(C(=O)NCc2ccc3c(c2)OCO3)cc2c(=O)n3ccccc3nc21	4.55	
Cc1cc(C)c(C2=CC(c3ccccc3)n3ncnc3N2)cc1C (centres undefined)	4.41	
Cc1ccc(OCC(=O)N2CCCCCC2)c(C)c1		> 50 µM (inactive)
COc1ccc(OCC(=O)NNc2c3ccccc3nc3ccccc23)cc1		> 50 µM (inactive)
Cc1c(CCC(=O)NCCCN2CCCC2=O)c(=O)oc2c(C)c(O)ccc12	4.81	

SMILES	pIC50	IC50
CCC(=O)Nc1cccc(NC(=S)NC(=O)c2cccs2)c1		> 50 µM (inactive)
CN(C)c1oc(-c2cccs2)nc1C#N		> 50 µM (inactive)
N#Cc1cc(NCC2CCCO2)c([N+](=O)[O-])cc1C#N (centres undefined)		> 50 µM (inactive)
O=C(O)COc1ccc(F)cc1Br		> 50 µM (inactive)
O=C(Nc1ccccc1-c1ccccc1)c1cccs1		> 50 µM (inactive)
CCN1C(=S)SC(=O)C1=C1C=C(C)N(Cc2ccco2)C(C)=C1	4.95	
CN(C)CCCn1c(N)c(C#N)c2nc(C#N)c(C#N)nc21	4.66	
O=C(CCN1C(=O)COc2ccccc21)N1CCCCC1		> 50 µM (inactive)
CCOCCCNC(=S)NCCNc1nc2c(C)cccc2cc1C#N	4.44	
C=CCN1C(=O)/C(=C2/Sc3ccccc3N2CC)SC1=S		> 50 µM (inactive)
COC(=O)C1=CN(Cc2ccccc2)C=C(C(=O)OC)C1c1ccc(O)c(OC)c1		> 50 µM (inactive)
CCOC(=O)C1(CCc2ccccc2)CCN(Cc2ccccn2)CC1		> 50 µM (inactive)
CCOC(=O)/C(C#N)=C/c1ccc(N2CCN(C)CC2)cc1	4.80	
Cc1sc2c(c1C)C(=O)NC(c1ccccc1F)N2 (centres undefined)		> 50 µM (inactive)
Cc1ccccc1-n1c(=O)cc(N2CCC3(CC2)OCCO3)[nH]c1=O		> 50 µM (inactive)
CCN(CC)S(=O)(=O)c1cc(C(=O)Nc2ccccc2[N+](=O)[O-])ccc1Cl		> 50 µM (inactive)
N#Cc1ccccc1NC(=O)C1CC(=O)N(c2ccc3c4c(cccc24)CC3)C1 (centres undefined)		> 50 µM (inactive)
COc1ccc(-c2c(C)sc(NC(=O)c3ccnn3C)c2C#N)cc1		> 50 µM (inactive)
CC1=NN(C(=O)Cn2nc([N+](=O)[O-])cc2C)C(O)(C(F)(F)F)C1 (centres undefined)		> 50 µM (inactive)
Cc1nn(-c2ccccc2)c2sc(C(=O)NC3CCCCC3)cc12		> 50 µM (inactive)
Cc1c(Cl)c([N+](=O)[O-])nn1CCCC(=O)Nc1sc2c(c1C(N)=O)CCC(C)C2 (centres undefined)		> 50 µM (inactive)
Cc1cc(/C=c2/sc3nc4ccccc4n3c2=O)c(C)n1-c1ccccn1		> 50 µM (inactive)
Cc1ccc(N2CC(=O)N(NC(=O)c3sc4nc(C)cc(C)c4c3N)CC2=O)cc1		> 50 µM (inactive)
O=C(Nc1nc2ccc(S(=O)(=O)N3CCCCC3)cc2s1)c1cccnc1		> 50 µM (inactive)
COCCOC(=O)C1=C(C)OC(N)=C(C(=O)OC)C12C(=O)Nc1ccccc12 (centres undefined)		> 50 µM (inactive)

SMILES	pIC50	IC50
CC(=O)N1CCC(N(CCN2CCOCC2)C(=O)Nc2ccc(Cl)c(Cl)c2)CC1		> 50 µM (inactive)
CCOc1ccc(C2C(C(=O)OC)=CN(CCOC)C=C2C(=O)OC)cc1	4.88	
O=[N+]([O-])c1ccc(S(=O)(=O)Nc2nnc(C3CCCCC3)s2)cc1		> 50 µM (inactive)
Fc1ccc(N/N=C/C=C/c2ccccc2)c(F)c1		> 50 µM (inactive)
CCN1C(=O)C2(C(C#N)=C(N)Oc3n[nH]c(C(C)C)c32)c2ccccc21 (centres undefined)		> 50 µM (inactive)
CCOC(=O)c1ccc(CNC(=O)CSc2nnc(-c3ccncc3)o2)cc1		> 50 µM (inactive)
O=C1NC(c2cccc([N+](=O)[O-])c2)Oc2ccccc21 (centres undefined)		> 50 µM (inactive)
Oc1ccc(/C=N/Nc2cc(N3CCOCC3)nc(N3CCOCC3)n2)cc1		> 50 µM (inactive)
CCCCc1cc(=O)oc2c(C)c(OCC(=O)NCc3ccccn3)ccc12		> 50 µM (inactive)
CC(=O)Nc1cc(C(=O)N(C)Cc2ccco2)ccc1Sc1ccc(Cl)cc1		> 50 µM (inactive)
C=CCn1c(N)c(C(=O)OCCC)c2nc3ccccc3nc21	4.59	
COc1ccc(CCNc2c3ccccc3nc3ccccc23)cc1OC	4.90	
O=C(Cc1n[nH]c(=O)c2ccccc12)NCc1ccccn1		> 50 µM (inactive)
O=C(Cc1cc(=O)oc2cc(O)ccc12)N[C@@H](Cc1c[nH]c2ccccc12)C(=O)O		> 50 µM (inactive)
Cc1c(C=O)cnn1CCC(=O)O		> 50 µM (inactive)
COc1ccc(/C=N/NC(=O)c2sc3nc(C)cc(C)c3c2N)cc1	4.68	
COc1ccc(C(=O)Nc2sc3c(c2C#N)CCN(C(C)=O)C3)cc1		> 50 µM (inactive)
CC(=O)Nc1ccc(S(=O)(=O)NCc2nc(-c3cccc(C)c3)no2)cc1		> 50 µM (inactive)
CC1(C)CC(=O)C=C(Nc2ccc(S(N)(=O)=O)cc2)C1		> 50 µM (inactive)
CCOc1ccc2nc(SCC(=O)NCc3ccc4c(c3)OCO4)[nH]c2c1		> 50 µM (inactive)
Cc1cc(C)c2c(N)c(C(=O)NN3CC(=O)N(c4ccccc4F)CC3=O)sc2n1		> 50 µM (inactive)
CN(C)c1nc(-c2ccccc2)cc(C(F)(F)F)c1C#N	4.97	
Cc1ccc(S(=O)(=O)Nc2nc3ccccc3nc2NCc2ccco2)cc1	4.74	
COC(=O)c1cc2c(ccn2C)n1C		> 50 µM (inactive)
